From patent US8815935B2, “Inhibitors of protein prenyltransferases” (The Regents of the University of California, priority 2008, dated 2014)

Columns and labels:
[1] = biological target: GGTase I (K-Ras4B as substrate) (Homo sapiens, UniProt P49354+P53609); experiment: GGTase I filter-binding assay, K-Ras4B as substrate (library screens); assay type: biochemical; details: compound 50 μM; DMSO = 100%; smaller = better inhibition; 50 µM
Description: (§1) The pilot library was screened for inhibitors of protein geranylgeranyltransferase type I. Protein prenyltransferase assays were carried out by using filter binding. Two different substrates, RhoA and K-Ras4B, were used for the assay. RhoA ends with the CaaL motif and is an exclusive substrate for GGTase I, while K-Ras4B ends with the CaaX motif and is modified by both GGTase I and FTase.
(§2) In the assay, a fixed concentration of 100 μM was used and the results are plotted for the inhibition of RhoA (vertical axis) as well as for K-Ras4B (horizontal axis). […] They are 2,6-diaryl-N-tosyl-1,2,5,6-tetrahydropyridine-3-carboxylic acids, except P2-D5 that is missing an aryl substituent at C2.
The % activity of GGTase I was determined as follows: a working solution that contained each compound in DMSO at the concentration of 1 mM was prepared. The working solution was added to GGTase I reaction mixture so that the final concentration of the compound is 50 μM. GGTase I activity was assayed by incubating [^3H]GGPP with K-Ras4B or RhoA protein in the presence of GGTase I and examining radioactivity incorporated into the substrate protein by spotting onto a filter paper. After washing with TCA, ethanol and acetone, the radioactivity retained on the filter was determined by the use of a scintillation counter. GGTase I activity in the presence of DMSO was taken as a 100% value and the activity in the presence of the compound was shown as percent activity compared with the 100% value. […] For 6-aryl-4-mercapto-N-sulfonyl-piperidine-3-carboxylic acid 11 the 4-mercapto substituent appeared critical to endowing GGTase inhibitory activity. […] 4-Chlorobenzylthio substituent was the next best; 12 compounds out of 21 containing the 4-chlorobenzylthio moiety were active. 4-Benzylthio substituent was also good; 7 piperidines out of 21 bearing 4-benzylthio group were active. […] 19 imines (C15>C12=C41>C40>C01=C11>C05=C10=C30=C35=C37=C38>C02, C03, C04, C06, C39=C43) out of 21 appeared in the GGTIs. […] This corresponds to 47 6-aryl-4-mercapto-N-sulfonyl-piperidine-3-carboxylic acids out of 357 compounds.
A collection of 138 heterocycles was screened for their ability to inhibit the activity of human GGTase-I to geranylgeranylate K-Ras4B or RhoA. Purified GGTase-I was incubated with its substrate protein K-Ras4B or RhoA, [^3H]GGPP, and the 138 compounds. After 30 min, the degree of incorporation of tritiated geranylgeranyl groups was measured using a scintillation counter.

[2] = biological target: GGTase I (RhoA as substrate) (Homo sapiens, UniProt P49354+P53609); experiment: GGTase I filter-binding assay, RhoA as substrate (library screens); assay type: biochemical; details: compound 50 μM, DMSO = 100%, smaller = better inhibition
Description: as §1, §2
The % activity of GGTase I was determined as follows: a working solution that contained each compound in DMSO at the concentration of 1 mM was prepared. The working solution was added to GGTase I reaction mixture so that the final concentration of the compound is 50 μM. GGTase I activity was assayed by incubating [^3H]GGPP with K-Ras4B or RhoA protein in the presence of GGTase I and examining radioactivity incorporated into the substrate protein by spotting onto a filter paper. After washing with TCA, ethanol and acetone, the radioactivity retained on the filter was determined by the use of a scintillation counter. GGTase I activity in the presence of DMSO was taken as a 100% value and the activity in the presence of the compound was shown as percent activity compared with the 100% value. […] For 6-aryl-4-mercapto-N-sulfonyl-piperidine-3-carboxylic acid 11 the 4-mercapto substituent appeared critical to endowing GGTase inhibitory activity. […] 4-Chlorobenzylthio substituent was the next best; 12 compounds out of 21 containing the 4-chlorobenzylthio moiety were active. […]
A collection of 138 heterocycles was screened for their ability to inhibit the activity of human GGTase-I to geranylgeranylate K-Ras4B or RhoA. […] After 30 min, the degree of incorporation of tritiated geranylgeranyl groups was measured using a scintillation counter.

SMILES: Cc1ccccc1S(=O)(=O)N1C(c2ccc(Cl)cc2)CC=C(C(=O)O)[C@@H]1c1ccccc1 (some centres unmarked) [drawing 42]
- % activity of GGTase I for K-Ras4B in the presence of the compound [1]: 5.4%
- % activity of GGTase I for RhoA in the presence of the compound [2]: 3.0%
